Earlier results on five molecules are cited in article PMC8801796 (Reproductive Toxicology (Elmsford, N.y.), 2022).

Data set [1] relates to rabbits. The settings on record: cited from earlier work.
Data set [2] deals with rats. To be noted: cited from earlier work.
The subject of data set [3] is bacterial reverse mutation. The settings on record: in vitro; cited from earlier work.
Data set [4] has as its system Big Blue® (cII Locus) transgenic rodent. To be noted: cited from earlier work.
Data set [5] deals with hypoxanthine phosphoribosyltransferase (HPRT) gene. The settings on record: mammalian cell; cited from earlier work.
For data set [6], the system named is rats. To be noted: rat PPND, maternal dosing GD 6 to postpartum day 20; cited from earlier work.
Data set [7] has as its system monkeys, mice, rats, and rabbits. The settings on record: cited from earlier work.
The test system of data set [8] is rats, rabbits, and guinea pigs. The settings on record: cited from earlier work.

Like-named read-outs stand apart in the source and are kept apart here.

`CCC(CC)COC(=O)[C@H](C)N[P@](=O)(OC[C@H]1O[C@@](C#N)(c2ccc3c(N)ncnn23)[C@H](O)[C@@H]1O)Oc1ccccc1` [remdesivir]: the “Effects on embryo-fetal development” value in data set [1] (rabbits, up the highest dose tested, 20 mg/kg/day) is “no adverse effects on embryo-fetal development”; in data set [2] (rats, up the highest dose tested, 20 mg/kg/day) it was “no adverse effects on embryo-fetal development”.
For `CC(C)C(=O)OC[C@H]1O[C@@H](n2ccc(NO)nc2=O)[C@H](O)[C@@H]1O` [molnupiravir], in data set [3], the Ames assay result is “positive”. The “Big Blue transgenic rodent mutagenesis assay result” value in data set [4] is listed as “negative”. Further, the Developmental toxicity entry in data set [1] (rabbits, 400 mg/kg/day) is “no developmental toxicity”; in data set [1] (rabbits, 750 mg/kg/day, in the presence of slight maternal toxicity), “lower fetal body weights”; in data set [2] (rats, 250 mg/kg/day), “no developmental toxicity”; in data set [2] (rats, 500 mg/kg/day, in the presence of decreased maternal body weight gain), “lower fetal body weights and delayed ossification”; in data set [2] (rats, 1000 mg/kg/day (highest dose)), “severe manifestations of developmental toxicity (malformations and embryo-fetal lethality)”. In addition, the “HPRT gene mutation assay result” value in data set [5] was “positive”.
Consider `CC(C)c1nc(CN(C)C(=O)N[C@H](C(=O)N[C@@H](Cc2ccccc2)C[C@H](O)[C@H](Cc2ccccc2)NC(=O)OCc2cncs2)C(C)C)cs1` [ritonavir], for which the Fetal malformations entry in data set [1] (rabbit EFD, doses of 25, 50, and 110 mg/kg/day) was “no evidence of fetal malformations”; in data set [2] (rat EFD, doses of 15, 35, and 75 mg/kg), “no evidence of fetal malformations”. Further, the “Cryptorchidism in postnatal developing rats” value in data set [6] is “no reports of cryptorchidism”. For the same molecule, the “Cryptorchidism in rat EFD study” value in data set [2] (mid (35 mg/kg/day) and high (75 mg/kg/day) doses) is “cryptorchidism was reported”. Besides, the “Developmental toxicity findings in EFD studies” value in data set [2] (rats and/or rabbits, only at the highest dose evaluated in each species, maternally toxic doses) is “higher resorptions, lower fetal body weight, ossification delays, and increased skeletal variations”.
For the molecule `NC(=O)c1nc(F)c[nH]c1=O` [FAV, favipiravir], in data set [7], the Teratogenicity entry is “teratogenesis has been reported”.
`NC(=O)c1ncn([C@@H]2O[C@H](CO)[C@@H](O)[C@H]2O)n1` [RBV, ribavirin]: the Teratogenicity result in data set [8] is “embryocidal and/or teratogenic”.
